Assay results taken from patent US7138426B2, “Estrogen receptor modulators” (Merck & Co., Inc., priority 2003, dated 2006).
pEC50: −log10 of the molar value.

Tested on: MCF-7 cells
Experiment: MCF-7 Estrogen Dependent Proliferation Assay
Type: cell-based
Details: Homo sapiens, MCF7, addition to Estrogen Depleted Media (EDM), read-out: EC50 of growth stimulation of MCF-7 cells
From the text: MCF-7 cells (ATCC #HTB-22) are human mammary gland adenocarcinoma cells that require estrogen for growth. The growth media (GM) for the MCF-7 cells is Minimum Essential Media (without phenol red) supplemented with fetal bovine serum (FBS) to 10%. The FBS serves as the sole source of estrogen and this GM supports the full growth of the cells and is used for the routine growth of the cell cultures. When MCF-7 cells are placed in a media in which 10% Charcoal-Dextran treated fetal bovine serum (CD-FBS) is substituted for FBS, the cells will cease to divide but will remain viable. […] The addition of estradiol to EDM stimulates the growth of the MCF-7 cells in a dose dependent manner with an EC50 of 2 pM. Growing MCF-7 cells are washed several times with EDM and the cultures then maintained in EDM for a minimum of 6 days in order to deplete the cells of endogenous estrogen. […] At this point, the culture supernatants are aspirated, the cells washed 2× with PBS, the wash solution aspirated and the protein content of each well determined. Each drug dilution is evaluated on a minimum of 5 wells and the range of dilution of the test compounds in the assay is 0.001 nM to 1000 nM. […] The assay is terminated at day 8–10 when the appropriate controls reach 80–90% confluency and the protein content of each well is determined as above.

## C[C@]12CC[C@@H]3c4ccc(O)cc4CC[C@H]3[C@@H]1CC[C@@H]2O [estradiol]
  pEC50: 11.70
